Measured values taken from patent publication US8003659B2, “Macrocyclic serine protease inhibitors” (Indenix Pharmaceuticals, Inc., priority 2008, dated 2011).

What was measured:
mutant protease D168A = test: Resistance profile, mutant protease D168A; assay type: biochemical, HCV; conditions: ratio of inhibitory activity against mutant enzyme over non-mutant enzyme
Procedure: General procedure: Measurement of the inhibitory effect of compounds on HCV protease activity was performed with the SensoLyte™ 620 HCV Protease Assay kit from AnaSpec, Inc. (San Jose, Calif.) under conditions described by the supplier using 1.2 nM HCV NS3-NS4A protease, which was obtained according to Taremi et al. (Protein Science, 1998, 7, 2143-2149). The compounds were tested at a variety of concentrations in assay buffer containing a final DMSO concentration of 5%. Reactions were allowed to proceed for 60 min at room temperature and fluorescence measurements were recorded with a Tecan Infinity Spectrofluorimeter. The IC50 values were determined from the percent inhibition versus concentration data using a sigmoidal non-linear regression analysis based on four parameters with Tecan Magellan software.
Compounds were evaluated against three mutant proteases R155Q, A156S, and D168A, as summarized in Table 8, wherein A represents a value smaller than 1, and B represents a value between 1 to 10, and C represents a value greater than 10. The fold of change in inhibitory activity was determined by measuring the ratio of the inhibitory activity of a compound against a mutant enzyme over the inhibitory activity of the same compound against non-mutant enzyme. The inhibitory activity was determined using the procedure as described in Example 31.

genotype 1b replicon = test: Antiviral activity in a genotype 1b replicon assay; assay type: cell-based, HCV; conditions: Hepatitis C virus; genotype 1b replicon assay as described in Example 32; read-out: EC50
Procedure: General procedure: Huh-7 cells containing HCV Con1 subgenomic replicon (GS4.1 cells) were grown in Dulbecco's Modified Eagle Medium (DMEM) supplemented with 10% fetal bovine serum (FBS), 2 mM L-glutamine, 110 mg/L sodium pyruvate, 1× non-essential amino acids, 100 U/mL penicillin-streptomycin, and 0.5 mg/mL G418 (Invitrogen). For dose-response testing, the cells were seeded in 96-well plates at 7.5×10^3 cells/well in a volume of 50 μL, and incubated at 37° C./5% CO2. Three hours after plating, 50 μL of ten 2-fold serial dilutions of compounds (highest concentration, 75 μM) were added, and cell cultures were incubated at 37° C./5% CO2 in the presence of 0.5% DMSO. Alternatively, compounds were tested at a single concentration of 15 μM. In all cases, Huh-7 cells lacking the HCV replicon served as negative control. The cells were incubated in the presence of compounds for 72 hr after which they were monitored for expression of the NS4A protein by enzyme-linked immunosorbent assay (ELISA). For this, the plates were then fixed for 1 min with acetone/methanol (1:1, v/v), washed twice with phosphate-buffered saline (PBS), 0.1% Tween 20, blocked for 1 hr at room temperature with TNE buffer containing 10% FBS and then incubated for 2 hr at 37° C. with the anti-NS4A mouse monoclonal antibody A-236 (ViroGen) diluted in the same buffer. After washing three times with PBS, 0.1% Tween 20, the cells were incubated 1 hr at 37° C. with anti-mouse immunoglobulin G-peroxidase conjugate in TNE, 10% FBS. After washing as described above, the reaction was developed with O-phenylenediamine (Zymed). The reaction was stopped after 30 min with 2 NH2SO4, and absorbance was read at 492 nm using Sunrise Tecan spectrophotometer. EC50 values were determined from the % inhibition versus concentration data using a sigmoidal non-linear regression analysis based on four parameters with Tecan Magellan software. When screening at a single concentration, the results were expressed as % inhibition at 15 μM.
Compounds were tested in a genotype 1b replicon assay as described in Example 32 and the results are summarized in Table 6, wherein A represents a value smaller than 1 μM, and B represents a value between 1 μM to 10 μM, C represents a value between 10 μM to 75 μM and D represents a value greater than 75 μM.

[1] = tested on: Huh-7 cells containing HCV Con1 subgenomic replicon (GS4.1 cells); test: HCV Replicon Assay (NS4A ELISA); assay type: cell-based; conditions: Hepatitis C virus, Huh-7, 72 hr, NS4A protein by ELISA
How it was run: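 GS4.1 cells (Huh-7 with HCV Con1 subgenomic replicon) given ten 2-fold compound dilutions (top 75 μM) or a single 15 μM dose in 0.5% DMSO for 72 h at 37 °C. NS4A measured by cell ELISA (A492); EC50 from four-parameter sigmoidal fit, single-dose results as % inhibition at 15 μM.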

Question: With `COc1ccc2c(O[C@H]3C[C@H]4C(=O)N(C)CCCC/C=C\[C@@H]5C[C@@]5(C(=O)NS(=O)(=O)C5CC5)NC(=O)N4C3)cc(-c3nc(C(C)C)cs3)nc2c1Cl` [Compound 62d, (Z)-(4R,6S,15S,17S)-[17-[8-chloro-7-methoxy-2-(4-isopropylthiazol-2-yl)quinolin-4-yloxy]-13-N-methyl-2,14-dioxo-1,3,13-triazatricyclo[13.3.0.0]octadec-7-en-4-yl]carbonyl(cyclopropyl)sulfonamide] as the compound, how does the “Fold-Change D168A” value (mutant protease D168A) read?
Answer: The value was “C (C represents a value greater than 10)”.

Question: What about the EC50 (genotype 1b replicon) of the same compound?
Answer: The EC50 was < 1 µM.

Question: And the EC50 [1]?
Answer: Its EC50 is < 1 µM.
